Source: patent publication US20220370486A1, “COMBINATION TREATMENT OF SYSTEMIC FUNGAL INFECTIONS” (The Board of Trustees of the University of Illinois, priority 2019, published 2022)

Columns and labels:
primary hREC = assay: Toxicity to primary hREC; type: cell-based, human
Excerpt: (§1) This key discovery opened a path to the rational development of a non-toxic AmB variant. To probe its predicted role in sterol binding, the hydroxyl group was synthetically deleted at the C2′ position on the mycosamine appendage.
(§2) In each case, C2′epiAmB is non-toxic to human red blood cells, primary hREC, mice, and rats up to the highest dose tested.

[1] = Isothermal titration calorimetry (ITC) sterol binding
Excerpt: as §1
A practical 11-step synthesis of C2′epiAmB using a frontier site-selective acylation method was developed. Wilcock, B. C. et al., Nat Chem 2012, 4 (12), 996-1003; Uno, B. E. A synthesis enabled understanding of Amphotericin B leading to derivatives with improved therapeutic indices. University of Illinois at Urbana-Champaign, 2014. The sterol binding and cell killing activities was then determined.

human red blood cells = assay: Toxicity to human red blood cells; type: cell-based
Excerpt: as §1, §2

yeast = assay: Activity against yeast; type: cell-based
Excerpt: as §1

Question: With `CC1C=CC=CC=CC=CC=CC=CC=CC(OC2CC(N)C(O)C(C)O2)CC2OC(O)(CC(O)CC(O)C(O)CCC(O)CC(O)CC(=O)OC(C)C(C)C1O)CC(O)C2C(=O)O` (centres unmarked) [C2′deOAmB] as the molecule, how does the “toxicity to primary hREC” value (primary hREC) read?
Answer: nontoxic

Question: And the “binding of ergosterol by ITC” value [1]?
Answer: bind ergosterol

Question: What about the “binding of cholesterol by ITC” value ([1]; within the detection limits of ITC) of the same molecule?
Answer: not cholesterol

Question: What about the “toxicity to human red blood cells” value (human red blood cells) of the same molecule?
Answer: nontoxic

Question: And the activity against yeast (yeast)?
Answer: retained good activity
